Where two headings read alike, the source gives them in different places.
Assays:
C4-2 cells = test: Cell-based killing assay of payloads (CellTiter-Glo), C4-2 cells; parameters: species or system human; details: 5-day incubation; for IC50: Homo sapiens, C4-2, 120 h, average ± SD where replicates; for C4-2 % Kill: at maximum concentration tested (100 − % viable cells)
Summary of the method: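 Cells plated at 4000/well in line-specific complete medium, grown overnight, then exposed to 1:3 serial dilutions of payload (100 nM to […]) for 5 days. ATP-based CellTiter-Glo luminescence read; IC50 from four-parameter logistic 10-point fit, and % kill at top concentration as 100 − % viable.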

T47D cells = test: Cell-based killing assay of payloads (CellTiter-Glo), T47D cells; parameters: species or system human; details: 5-day incubation; for IC50: Homo sapiens, T47D, 120 h; for T47D % Kill: at maximum concentration tested
Procedure: (§1) To test the ability of the disclosed tubulysin payloads to kill human cell lines, an in vitro cytotoxicity assay was performed. In vitro cytotoxicity of the disclosed payloads, as well as reference compounds, were evaluated using the CellTiter-Glo Assay Kit (Promega, Cat #G7573), in which the quantity of ATP present is used to determine the number of viable cells in culture. For the assay, C4-2, HEK293, or T47D cells were seeded at 4000 cells/well on Nunclon white 96-well plates in complete growth medium (DME high glucose:Ham's F12 at 4:1, 10% FBS, 100 units/ml Penicillin, 100 ug/ml streptomycin, 53 ug/ml glutatmine, 10 ug/ml insulin, 220 ng/ml biotin, 12.5 pg/ml T3, 12.5 ug/ml Adenine, 4 ug/ml transferrin for C42 cells; DME high glucose, 10% FBS, 100 units/ml Penicillin, 100 ug/ml streptomycin, 53 ug/ml glutatmine for HEK293; RPMI, 10% FBS, 100 units/ml Penicillin, 100 ug/ml streptomycin, 53 ug/ml glutatmine, 10 ug/ml insulin, 10 mM HEPEs, 200 nM Sodium Pyruvate for T47D cells) and grown overnight at 37° C. in 5% CO2. For cell viability curves, 1:3 serially diluted payloads were added to the cells at final concentrations ranging from 100 nM to […], including a no treatment control group, and were then incubated for 5 days. After the 5-day incubation, cells were incubated at room temperature with 100 μL of CellTiter-Glo reagents for 10 minutes. Relative luminescence units (RLU) were determined on a Victor plate reader (PerkinElmer). The IC50 values were determined from a four-parameter logistic equation over a 10-point response curve (GraphPad Prism). All IC50 values are expressed in molar (M) concentration. The percent cell killing (% kill) at the maximum concentration tested was estimated from the following formula (100−% viable cells). Averages±standard deviation (SD) are included where replicate experiments were performed.

HEK293 cells = test: Cell-based killing assay of payloads (CellTiter-Glo), HEK293 cells; parameters: species or system human; details: 5-day incubation; for IC50: Homo sapiens, HEK293, 120 h; for HEK293 % Kill: at maximum concentration tested
Procedure: as §1

HCT15 cells = test: cells; assay type: cell-based, human; details: HCT15 cells; for HCT-15 + verapamil % Kill / HCT-15 % Kill: maximum % cell killing
Summary of the method: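 HCT15 colorectal carcinoma cells, 1000 per well in RPMI/10% FBS, with or without 5 ug/mL verapamil, exposed to 1:3 serially diluted payloads for 5 days at 37 °C. Viability measured by CellTiter-Glo ATP luminescence; IC50 from four-parameter logistic fit of a 10-point curve, % kill at top concentration.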

[1] = with 5 ug/mL Verapamil, read-out: HCT-15 + verapamil IC50
[2] = Homo sapiens, HCT-15, without Verapamil, read-out: HCT-15 IC50

Structure (SMILES)	IC50 (C4-2 cells) [nM]	C4-2 % Kill (C4-2 cells) [%]	IC50 (T47D cells) [nM]	T47D % Kill (T47D cells) [%]	IC50 (HEK293 cells) [nM]	HEK293 % Kill (HEK293 cells) [%]	HCT-15 + verapamil % Kill (HCT15 cells; with 5 ug/mL Verapamil) [%]	IC50 (HCT15 cells; [1]) [nM]	HCT-15 % Kill (HCT15 cells; without Verapamil) [%]	IC50 (HCT15 cells; [2]) [nM]
CC[C@H](C)[C@H](NC(=O)[C@H]1CCCCN1C)C(=O)N(CCCCc1c[nH]nn1)[C@H](C[C@@H](OC(C)=O)c1nc(C(=O)N[C@@H](Cc2ccc(N)cc2)CC(C)(C)C(=O)O)cs1)C(C)C [IVj, (S)-4-(2-((1R,3R)-3-((2S,3S)—N-(4-(1H-1,2,3-triazol-5-yl)butyl)-3-methyl-2-((R)-1-methylpiperidine-2-carboxamido)pentanamido)-1-acetoxy-4-methylpentyl)thiazole-4-carboxamido)-5-(4-aminophenyl)-2,2-dimethylpentanoic acid]	7.16	94.5	17.7	79.9	17.6	75.5	98.4	5.56	96.4	7.8
C#CCCCON(C(=O)[C@@H](NC(=O)[C@H]1CCCCN1C)[C@@H](C)CC)[C@H](C[C@@H](OC(C)=O)c1nc(C(=O)N[C@@H](Cc2ccc(F)cc2)C[C@H](C)C(=O)O)cs1)C(C)C [Vf, (2S,4R)-4-({2-[(1R,3R)-1-(Acetyloxy)-4-methyl-3-[(2S,3S)-3-methyl-2-{[(2R)-1-methylpiperidin-2-yl]formamido}-N-(pent-4-yn-1-yloxy)pentanamido]pentyl]-1,3-thiazol-4-yl}formamido)-5-(4-fluorophenyl)-2-methylpentanoic acid]	0.9	90	0.396	68	0.666	83.8	98	0.375	96.5	3.36
CCCCCCNC(=O)O[C@H](C[C@H](C(C)C)N(OCCCCCC)C(=O)[C@@H](NC(=O)[C@H]1CCCCN1C)[C@@H](C)CC)c1nc(C(=O)N[C@@H](Cc2ccc(O)cc2)C[C@H](C)C(=O)O)cs1 [VIe, (2S,4R)-5-(4-Hydroxyphenyl)-4-(2-((9R,11R)-9-isopropyl-8-((2S,3S)-3-methyl-2-((R)-1-methylpiperidine-2-carboxamido)pentanoyl)-13-oxo-7,12-dioxa-8,14-diazaicosan-11-yl)thiazole-4-carboxamido)-2-methylpentanoic acid]	8.22	94.4 ± 0.2	2.27	72.7	4.77	76.7	98.8	0.295	36.6	> 100
CCCCCCON(C(=O)[C@@H](NC(=O)[C@H]1CCCCN1C)[C@@H](C)CC)[C@H](C[C@@H](OC(=O)NCCCC)c1nc(C(=O)N[C@@H](Cc2ccc(O)cc2)C[C@H](C)C(=O)O)cs1)C(C)C [VId, (2S,4R)-5-(4-Hydroxyphenyl)-4-(2-((8R,10R)-10-isopropyl-11-((2S,3S)-3-methyl-2-((R)-1-methylpiperidine-2-carboxamido)pentanoyl)-6-oxo-7,12-dioxa-5,11-diazaoctadecan-8-yl)thiazole-4-carboxamido)-2-methylpentanoic acid]	2.4	95.5 ± 2.6	2.51	68.4	5.26	78.5	99	0.482	78.7	> 30
CC[C@H](C)[C@H](NC(=O)[C@H]1CCCCN1C)C(=O)N(OCCCOCc1ccc(N)cc1)[C@H](C[C@@H](OC(C)=O)c1nc(C(=O)N[C@@H](Cc2ccc(O)cc2)C[C@H](C)C(=O)O)cs1)C(C)C [Vj, (2S,4R)-4-(2-((8R,10R)-1-(4-Aminophenyl)-8-isopropyl-7-((2S,3S)-3-methyl-2-((R)-1-methylpiperidine-2-carboxamido)pentanoyl)-12-oxo-2,6,11-trioxa-7-azatridecan-10-yl)thiazole-4-carboxamido)-5-(4-hydroxyphenyl)-2-methylpentanoic acid]	53.1	68.5 ± 39.2	> 100	14.6	> 100	4.7	77.4	39.2	−3.8	> 100
C#CCCCON(C(=O)[C@@H](NC(=O)[C@H]1CCCCN1C)[C@@H](C)CC)[C@H](C[C@@H](OC(C)=O)c1nc(C(=O)N[C@@H](Cc2ccc(F)cc2)CC(C)(C)C(=O)O)cs1)C(C)C [Vd, (4S)-4-({2-[(1R,3R)-1-(Acetyloxy)-4-methyl-3-[(2S,3S)-3-methyl-2-{[(2R)-1-methylpiperidin-2-yl]formamido}-N-(pent-4-yn-1-yloxy)pentanamido]pentyl]-1,3-thiazol-4-yl}formamido)-5-(4-fluorophenyl)-2,2-dimethylpentanoic acid]	0.384	91.3	0.444	66	0.59	86.3	98.7	0.352	99.7	1.93
CCCCCCON(C(=O)[C@@H](NC(=O)[C@H]1CCCCN1C)[C@@H](C)CC)[C@H](C[C@@H](OC(=O)NCC)c1nc(C(=O)N[C@@H](Cc2ccc(O)cc2)C[C@H](C)C(=O)O)cs1)C(C)C [VIb, (2S,4R)-5-(4-hydroxyphenyl)-4-(2-((6R,8R)-8-isopropyl-9-((2S,3S)-3-methyl-2-((R)-1-methylpiperidine-2-carboxamido)pentanoyl)-4-oxo-5,10-dioxa-3,9-diazahexadecan-6-yl)thiazole-4-carboxamido)-2-methylpentanoic acid]	12	96.5	13.6	76.2	20.3	75.4	97.8	2.88	54.7	> 50
